The results in this text go back to US6500802B1, “Peptidyl-2-amino-1-hydroxyalkanesulfonic acid cysteine protease inhibitors” (Cephalon, Inc., priority 1997, dated 2002).

≈ marks a conversion by molar mass, not a printed value. Structures can show the parent of a compound that is named as a salt. Where a SMILES comes first, the peptide text is derived from it. [ ]: non-standard residue; d: D form. The star is where a group is joined. Gly(cPent) = N[CH](C(=O)O)C1CCCC1; Cbz = O=C(OCc1ccccc1)*; Abu = CC[CH](N)C(=O)O

One may read the IC50 as the concentration needed to halve the response being measured. As a reminder, the Solubility is the dissolved amount per volume that the medium holds. A high value points to much dissolved substance.

For one series, the target named is T1, Recombinant human calpain I (Homo sapiens, UniProt P07384).
T1 construct: made in house
T1 sequence (P07384 1-714): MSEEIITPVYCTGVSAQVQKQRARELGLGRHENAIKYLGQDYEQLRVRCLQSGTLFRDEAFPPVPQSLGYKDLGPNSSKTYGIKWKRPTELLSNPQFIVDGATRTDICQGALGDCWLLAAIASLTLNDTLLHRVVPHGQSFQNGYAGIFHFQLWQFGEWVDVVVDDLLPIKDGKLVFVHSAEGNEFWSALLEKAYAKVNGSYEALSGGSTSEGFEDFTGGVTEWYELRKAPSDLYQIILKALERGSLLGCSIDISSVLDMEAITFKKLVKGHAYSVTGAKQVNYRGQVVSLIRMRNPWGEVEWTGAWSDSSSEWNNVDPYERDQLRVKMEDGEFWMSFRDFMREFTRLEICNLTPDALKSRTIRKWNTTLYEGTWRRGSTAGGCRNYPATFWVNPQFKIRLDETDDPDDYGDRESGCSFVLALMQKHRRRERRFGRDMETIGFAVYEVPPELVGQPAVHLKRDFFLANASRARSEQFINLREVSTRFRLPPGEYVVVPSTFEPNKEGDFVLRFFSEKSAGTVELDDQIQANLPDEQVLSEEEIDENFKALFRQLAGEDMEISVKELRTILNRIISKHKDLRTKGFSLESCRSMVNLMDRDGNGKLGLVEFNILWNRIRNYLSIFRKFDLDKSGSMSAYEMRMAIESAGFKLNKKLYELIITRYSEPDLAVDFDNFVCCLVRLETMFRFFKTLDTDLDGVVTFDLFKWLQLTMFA
T1 sequence (P04632 1-268 partner): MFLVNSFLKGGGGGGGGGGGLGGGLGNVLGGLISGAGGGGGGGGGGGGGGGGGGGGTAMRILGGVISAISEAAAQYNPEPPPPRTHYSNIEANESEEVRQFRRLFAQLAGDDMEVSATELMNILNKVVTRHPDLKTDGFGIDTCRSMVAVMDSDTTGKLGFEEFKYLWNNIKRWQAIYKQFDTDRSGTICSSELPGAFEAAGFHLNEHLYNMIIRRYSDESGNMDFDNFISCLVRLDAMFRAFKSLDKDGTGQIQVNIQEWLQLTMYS
The series is described as follows: Inhibition of calpain I activity (Succ-Leu-Tyr-MNA hydrolysis). The class given is biochemical. The following applies: 0.2 mM Succ-Leu-Tyr-MNA, pH 7.5. The procedure: To evaluate inhibitory activity, stock solutions (40 concentrated) of each compound to be tested were prepared in 100% anhydrous DMSO and 5 μl of each inhibitor preparation were aliquoted into each of three wells of a 96-well plate. Recombinant human calpain I, prepared by the of Meyer et al. (Biochem. J. 1996, 314: 511-519), was into assay buffer (i.e., 50 mM Tris, 50 mM NaCl, 1 mM EDTA, 1 mM EGTA, and 5 mM β-mercaptoethanol, pH 7.5, including 0.2 mM Succ-Leu-Tyr-MNA), and 175 μl was aliquoted into the same wells containing the independent inhibitor stocks as well as to positive control wells which contained 5 μl DMSO, but no compound. To start the reaction, 20 μl of 50 mM CaCl2 in assay buffer was added to all wells of the plate, excepting three, which were used as background signal baseline controls. Substrate hydrolysis was monitored every 5 minutes for a total of 30 minutes. Substrate hydrolysis in the absence of inhibitor was linear for up to 15 minutes.
Inhibition of calpain I activity was calculated as the percent decrease in the rate of substrate hydrolysis in the presence of inhibitor relative to the rate in its absence. Comparison between the inhibited and control rates was made within the linear range for substrate hydrolysis. The IC50 values for inhibitors (concentration yielding 50% inhibition) were determined from the percent decrease in rates of substrate hydrolysis in the presence of five to seven different concentrations of the test compound. The results were plotted as percent inhibition versus log inhibitor concentration, and the IC50 was calculated by fitting the data to the four-parameter logistic equation shown below using the program GraphPad Prism (GraphPad Software, Inc., San Diego, Calif.).
In the equation above, the parameters a, b, c, and d are defined as follows: a is % inhibition in the absence of inhibitor, b is the slope, c is the IC50, and d is the % inhibition at an infinite concentration of inhibitor.
For the molecule `CC(C)[C@H](NC(=O)OCc1ccccc1)C(=O)NC(Cc1ccccc1)C(O)S(=O)(=O)O` (stereo partly drawn) [Compound 1, Benzyloxycarbonyl-L-valyl-2-amino-1-hydroxy-3-phenylpropanesulfonic acid sodium Salt], the IC50 came to 10 nM. For `O=C(N[C@H](C(=O)NC(Cc1ccccc1)C(O)S(=O)(=O)O)C1CCCC1)OCc1ccccc1` (stereo partly drawn) [Compound 3, Benzyloxycarbonyl-L-cyclopentylglycyl-2-amino-1-hydroxy-3-phenylpropanesulfonic acid sodium Salt], the concentration for half-maximal inhibition (IC50) came out at 15 nM. Same read-out and setting: for “Tetrahydroisoquinoline-2-carbonyl-L-leucyl-2-amino-1-hydroxy-3-phenylpropanesulfonic acid sodium Salt [Compound 2]” the value was 32 nM.

Test system in a further series: not listed separately
The series can be described thus: Solubility of inhibitors in Locke's buffer. The class given is physicochemical. The conditions noted are these: Locke's buffer pH 7.4; sulfonic acids: buffer added to weighed sample at 20° C.; control aldehydes: by UV absorption of filtrate.
In the case of `O=CC(Cc1ccccc1)NC(=O)C(NC(=O)OCc1ccccc1)C1CCCC1` (stereo not drawn) [Cbz-CyclopentylGly-Phe-H] (Cbz-[Gly(cPent)]-Phe-aldehyde; configuration not given here), the “Solubility” value came out at 80 µg/mL (≈ 196 µM). Regarding `CCC(C=O)NC(=O)C(CC(C)C)NC(=O)OCc1ccccc1` (stereo not drawn) [Cbz-Leu-Abu-H] (Cbz-Leu-[Abu]-aldehyde; configuration not given here), the “Solubility” value came to 210 µg/mL (≈ 628 µM). On the same count and under the same terms, with `CC(C)[C@H](NC(=O)OCc1ccccc1)C(=O)N[C@H](C=O)Cc1ccccc1` [Cbz-Val-Phe-H] (Cbz-Val-Phe-aldehyde) the figure was 180 µg/mL (≈ 471 µM); with `CC(C)C[C@H](NC(=O)N1CCc2ccccc2C1)C(=O)N[C@H](C=O)Cc1ccccc1` [THIQ-2-CO-Leu-Phe-H], 180 µg/mL (≈ 427 µM).
